System: 282377-053-R-J1-PDC complex spheroid viability
Assay: Anticancer human tumor 282377-053-R-J1-PDC patient-derived colon adenocarcinoma cell line growth inhibition [POLQ]
Settings: for IC50: curve of first compound; for viability, T/C: stronger effect = lower value; active = viability on the fitted dose curve at most 10% of control; inactive = the rest
Method in brief: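 Three-cell-type spheroids modelling solid tumor plus stroma served as the readout system; POL inhibitors were tested individually and in combination, concentration ranges set by clinical Cmax where known.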

[1] = second compound 0.0316 µM, first compound 0.0316 µM
[2] = second compound 0.0316 µM, first compound 0.1 µM
[3] = second compound 0.1 µM, first compound 0.0316 µM
[4] = second compound 0.1 µM, first compound 0.1 µM
[5] = second compound 0.316 µM, first compound 0.0316 µM
[6] = second compound 0.316 µM, first compound 0.1 µM
[7] = second compound 1 µM, first compound 0.0316 µM
[8] = second compound 1 µM, first compound 0.1 µM
[9] = second compound 3.16 µM, first compound 0.0316 µM
[10] = second compound 3.16 µM, first compound 0.1 µM
[11] = second compound 10 µM, first compound 0.0316 µM
[12] = second compound 10 µM, first compound 0.1 µM
[13] = second compound 0.0316 µM, first compound 0.316 µM
[14] = second compound 0.0316 µM, first compound 1 µM
[15] = second compound 0.0316 µM, first compound 3.16 µM
[16] = second compound 0.0316 µM, first compound 10 µM
[17] = second compound 0.1 µM, first compound 0.316 µM
[18] = second compound 0.1 µM, first compound 1 µM
[19] = second compound 0.1 µM, first compound 3.16 µM
[20] = second compound 0.1 µM, first compound 10 µM
[21] = second compound 0.316 µM, first compound 0.316 µM
[22] = second compound 0.316 µM, first compound 1 µM
[23] = second compound 0.316 µM, first compound 3.16 µM
[24] = second compound 0.316 µM, first compound 10 µM
[25] = second compound 1 µM, first compound 0.316 µM
[26] = second compound 1 µM, first compound 1 µM
[27] = second compound 1 µM, first compound 3.16 µM
[28] = second compound 1 µM, first compound 10 µM
[29] = second compound 3.16 µM, first compound 0.316 µM
[30] = second compound 3.16 µM, first compound 1 µM
[31] = second compound 3.16 µM, first compound 3.16 µM
[32] = second compound 3.16 µM, first compound 10 µM
[33] = second compound 10 µM, first compound 0.316 µM
[34] = second compound 10 µM, first compound 1 µM
[35] = second compound 10 µM, first compound 3.16 µM
[36] = second compound 10 µM, first compound 10 µM
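Also: spheroids exposed to compounds for seven days.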
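For viability, T/C in this document: 100% = DMSO vehicle control viability.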

CC[C@@]1(O)C(=O)OCc2c1cc1n(c2=O)Cc2cc3c(CN(C)C)c(O)ccc3nc2-1 + Cc1cccc(N(C)C(=O)C2C(O)CCN2c2nc(C)cc(C(F)(F)F)c2C#N)c1
inactive: viability, T/C (second compound 0.0316 µM, first compound 0.000316 µM) 97.1% | viability, T/C (second compound 0.0316 µM, first compound 0.001 µM) 107% | viability, T/C (second compound 0.0316 µM, first compound 0.00316 µM) 118% | viability, T/C (second compound 0.0316 µM, first compound 0.01 µM) 111% | viability, T/C [1] 94.4% | viability, T/C [2] 76.1% | viability, T/C (second compound 0.1 µM, first compound 0.000316 µM) 98.3% | viability, T/C (second compound 0.1 µM, first compound 0.001 µM) 108% | viability, T/C (second compound 0.1 µM, first compound 0.00316 µM) 86.1% | viability, T/C (second compound 0.1 µM, first compound 0.01 µM) 109% | viability, T/C [3] 87.6% | viability, T/C [4] 88% | viability, T/C (second compound 0.316 µM, first compound 0.000316 µM) 90.6% | viability, T/C (second compound 0.316 µM, first compound 0.001 µM) 97.8% | viability, T/C (second compound 0.316 µM, first compound 0.00316 µM) 101% | viability, T/C (second compound 0.316 µM, first compound 0.01 µM) 105% | viability, T/C [5] 107% | viability, T/C [6] 77.2% | viability, T/C (second compound 1 µM, first compound 0.000316 µM) 93% | viability, T/C (second compound 1 µM, first compound 0.001 µM) 92.6% | viability, T/C (second compound 1 µM, first compound 0.00316 µM) 124% | viability, T/C (second compound 1 µM, first compound 0.01 µM) 105% | viability, T/C [7] 124% | viability, T/C [8] 71.9% | viability, T/C (second compound 3.16 µM, first compound 0.000316 µM) 97.5% | viability, T/C (second compound 3.16 µM, first compound 0.001 µM) 102% | viability, T/C (second compound 3.16 µM, first compound 0.00316 µM) 98.5% | viability, T/C (second compound 3.16 µM, first compound 0.01 µM) 94.6% | viability, T/C [9] 101% | viability, T/C [10] 71% | viability, T/C (second compound 10 µM, first compound 0.000316 µM) 87.5% | viability, T/C (second compound 10 µM, first compound 0.001 µM) 93.9% | viability, T/C (second compound 10 µM, first compound 0.00316 µM) 92.3% | viability, T/C (second compound 10 µM, first compound 0.01 µM) 81.2% | viability, T/C [11] 96.2% | viability, T/C [12] 65.2%
> 0.1 µM: IC50 (second compound 0.0316 µM) | IC50 (second compound 0.1 µM) | IC50 (second compound 0.316 µM) | IC50 (second compound 1 µM) | IC50 (second compound 3.16 µM) | IC50 (second compound 10 µM)

COc1cc(C2c3cc4c(cc3C(OC3OC5COC(C)OC5C(O)C3O)C3COC(=O)C23)OCO4)cc(OC)c1O (stereo not drawn) + Nc1ccc(C#CCN(C(=O)Cc2ncc(C(F)(F)F)cc2C(F)(F)F)c2ccc(F)cc2)nn1
inactive: viability, T/C [1] 113% | viability, T/C [2] 88.9% | viability, T/C [13] 116% | viability, T/C [14] 114% | viability, T/C [15] 109% | viability, T/C [16] 108% | viability, T/C [3] 100% | viability, T/C [4] 97.8% | viability, T/C [17] 83.5% | viability, T/C [18] 94.3% | viability, T/C [19] 98% | viability, T/C [20] 87.3% | viability, T/C [5] 93.1% | viability, T/C [6] 99.3% | viability, T/C [21] 75.8% | viability, T/C [22] 99.7% | viability, T/C [23] 96.6% | viability, T/C [24] 93.5% | viability, T/C [7] 88.6% | viability, T/C [8] 98.6% | viability, T/C [25] 107% | viability, T/C [26] 121% | viability, T/C [27] 113% | viability, T/C [28] 83% | viability, T/C [9] 118% | viability, T/C [10] 102% | viability, T/C [29] 119% | viability, T/C [30] 127% | viability, T/C [31] 92.5% | viability, T/C [32] 91.9% | viability, T/C [11] 107% | viability, T/C [12] 122% | viability, T/C [33] 139% | viability, T/C [34] 146% | viability, T/C [35] 115% | viability, T/C [36] 106%
> 10 µM: IC50 (second compound 0.0316 µM) | IC50 (second compound 0.1 µM) | IC50 (second compound 0.316 µM) | IC50 (second compound 1 µM) | IC50 (second compound 3.16 µM) | IC50 (second compound 10 µM)

CC1COCCN1c1cc(C2(O)CC3CCC(C2)O3)c2cnn(-c3ccn[nH]3)c2n1 (stereo not drawn) + Nc1ccc(C#CCN(C(=O)Cc2ncc(C(F)(F)F)cc2C(F)(F)F)c2ccc(F)cc2)nn1
1.08 µM: IC50 (second compound 10 µM)
inactive: viability, T/C [1] 83.8% | viability, T/C [2] 75.4% | viability, T/C [13] 67.5% | viability, T/C [14] 53.3% | viability, T/C [15] 47.8% | viability, T/C [16] 40.5% | viability, T/C [3] 89.3% | viability, T/C [4] 89.3% | viability, T/C [17] 57.3% | viability, T/C [18] 48.7% | viability, T/C [19] 43.3% | viability, T/C [20] 36.4% | viability, T/C [5] 107% | viability, T/C [6] 84.6% | viability, T/C [21] 63.9% | viability, T/C [22] 50.6% | viability, T/C [23] 46.5% | viability, T/C [24] 36.3% | viability, T/C [7] 97.6% | viability, T/C [8] 83.9% | viability, T/C [25] 71% | viability, T/C [26] 38.3% | viability, T/C [27] 44.4% | viability, T/C [28] 43.6% | viability, T/C [9] 92.3% | viability, T/C [10] 75.7% | viability, T/C [29] 65.6% | viability, T/C [30] 47.6% | viability, T/C [31] 45.9% | viability, T/C [32] 40.8% | viability, T/C [11] 97.3% | viability, T/C [12] 77.2% | viability, T/C [33] 62.8% | viability, T/C [34] 49.3% | viability, T/C [35] 44% | viability, T/C [36] 40.1%
1.29 µM: IC50 (second compound 0.316 µM)
0.73 µM: IC50 (second compound 1 µM)
1.18 µM: IC50 (second compound 3.16 µM)
1.98 µM: IC50 (second compound 0.0316 µM)
0.588 µM: IC50 (second compound 0.1 µM)

CNCc1ccc(-c2[nH]c3cc(F)cc4c3c2CCNC4=O)cc1 + Nc1ccc(C#CCN(C(=O)Cc2ncc(C(F)(F)F)cc2C(F)(F)F)c2ccc(F)cc2)nn1
> 10 µM: IC50 (second compound 0.0316 µM) | IC50 (second compound 0.1 µM) | IC50 (second compound 0.316 µM) | IC50 (second compound 1 µM) | IC50 (second compound 3.16 µM) | IC50 (second compound 10 µM)
inactive: viability, T/C [1] 105% | viability, T/C [2] 88.6% | viability, T/C [13] 90% | viability, T/C [14] 104% | viability, T/C [15] 108% | viability, T/C [16] 112% | viability, T/C [3] 119% | viability, T/C [4] 117% | viability, T/C [17] 104% | viability, T/C [18] 94.6% | viability, T/C [19] 97.4% | viability, T/C [20] 112% | viability, T/C [5] 95.7% | viability, T/C [6] 86.2% | viability, T/C [21] 89.8% | viability, T/C [22] 108% | viability, T/C [23] 92% | viability, T/C [24] 108% | viability, T/C [7] 95% | viability, T/C [8] 103% | viability, T/C [25] 100% | viability, T/C [26] 90.8% | viability, T/C [27] 115% | viability, T/C [28] 101% | viability, T/C [9] 109% | viability, T/C [10] 98.3% | viability, T/C [29] 127% | viability, T/C [30] 92.4% | viability, T/C [31] 118% | viability, T/C [32] 139% | viability, T/C [11] 113% | viability, T/C [12] 105% | viability, T/C [33] 126% | viability, T/C [34] 121% | viability, T/C [35] 113% | viability, T/C [36] 145%
